Measured values: US12428394B2, “2,4-disubstituted pyrimidine derivative, preparation method therefor and use thereof” (CHENGDU ZENITAR BIOMEDICAL TECHNOLOGY CO., LTD., priority 2019, dated 2025)
Where two headings read alike, the source gives them in different places.

What was measured:
SET-2 cells = assay type: in vivo; conditions: for Tumor inhibition rate (%): SET-2 model, oral
Method: (§1) MV4-11 cells and SET-2 cells were used to establish a mouse xenograft model to investigate the efficacy. NOD/SCID immunocompromised mice (purchased from Beijing Huafukang Biotechnology Co., Ltd.) were received and acclimated to the environment until they were normalized in diet and activity. MV4-11 and SET-2 cells were routinely incubated and grew to 80% fusion degree. Then, the cells were collected and counted on a blood cell counting plate, with the cell concentration adjusted to 3×10^7 cells/mL. After the cells were collected, 100 μL of cell suspension was inoculated subcutaneously on the back of mice. When the tumor volume reached 100 mm^3, the drug administration was started. The dosage regimen was oral administration every day. […].

MV4-11 cells = assay type: in vivo; conditions: for Tumor inhibition rate (%): MV4-11 model, oral, QD × 6
Method: as §1

JAK3 = biological target: T1, JAK3 (Homo sapiens, UniProt P52333); test: In vitro kinase activity experiment, JAK3; assay type: biochemical
T1 construct: purchased Eurofins
T1 sequence (P52333 1-1124): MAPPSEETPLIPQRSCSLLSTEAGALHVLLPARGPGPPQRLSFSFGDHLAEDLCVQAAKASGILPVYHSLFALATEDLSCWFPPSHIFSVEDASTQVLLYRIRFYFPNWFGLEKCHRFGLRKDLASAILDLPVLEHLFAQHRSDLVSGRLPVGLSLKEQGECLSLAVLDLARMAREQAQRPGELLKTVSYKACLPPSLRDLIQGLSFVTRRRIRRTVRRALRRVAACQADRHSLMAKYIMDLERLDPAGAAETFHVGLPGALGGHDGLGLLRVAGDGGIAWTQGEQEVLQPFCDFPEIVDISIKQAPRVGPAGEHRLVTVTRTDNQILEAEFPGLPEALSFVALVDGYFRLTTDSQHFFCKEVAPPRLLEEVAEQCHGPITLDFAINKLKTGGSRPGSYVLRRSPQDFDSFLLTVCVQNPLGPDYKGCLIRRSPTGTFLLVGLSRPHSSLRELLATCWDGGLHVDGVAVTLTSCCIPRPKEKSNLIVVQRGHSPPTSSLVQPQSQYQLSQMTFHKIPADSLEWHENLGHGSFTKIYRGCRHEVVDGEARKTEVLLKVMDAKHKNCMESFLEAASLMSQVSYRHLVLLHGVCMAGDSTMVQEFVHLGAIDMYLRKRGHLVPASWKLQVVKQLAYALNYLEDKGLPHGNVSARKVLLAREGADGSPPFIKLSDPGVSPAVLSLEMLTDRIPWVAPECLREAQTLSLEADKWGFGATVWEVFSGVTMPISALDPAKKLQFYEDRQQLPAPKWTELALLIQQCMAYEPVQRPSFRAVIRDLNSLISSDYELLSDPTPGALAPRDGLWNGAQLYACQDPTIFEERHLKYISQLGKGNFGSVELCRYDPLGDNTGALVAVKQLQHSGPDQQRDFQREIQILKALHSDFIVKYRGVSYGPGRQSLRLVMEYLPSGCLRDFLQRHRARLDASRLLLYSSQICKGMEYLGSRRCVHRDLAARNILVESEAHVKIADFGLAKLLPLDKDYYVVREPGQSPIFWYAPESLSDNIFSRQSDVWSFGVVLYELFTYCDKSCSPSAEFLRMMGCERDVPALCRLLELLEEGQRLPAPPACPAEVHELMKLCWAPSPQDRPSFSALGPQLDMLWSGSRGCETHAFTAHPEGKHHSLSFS
Method: Buffer solution ([…], pH 7.0, 0.2 mm EDTA, 10 mM mncl2), kinase to be tested, substrate of kinase to be tested, 10 mM magnesium acetate and γ33P-ATP solution, and compounds with different concentrations were added to a reaction tube in turn, then MgATP was added to initiate the enzyme reaction process, and incubated at room temperature for 40 min. Then, the reaction was terminated with 5 μl of […], and 10 μl of the reaction solution was titrated onto the Filtermat A membrane, washed with 75 mM phosphate solution for three times, each time for 5 min., and then washed with methanol once. Finally, the Filtermat A membrane was dried and the scintillation count was carried out.

FLT3 = biological target: T2, FLT3 (Homo sapiens, UniProt P36888); test: In vitro kinase activity experiment, FLT3; assay type: biochemical
T2 construct: purchased Eurofins
T2 sequence (P36888 27-993): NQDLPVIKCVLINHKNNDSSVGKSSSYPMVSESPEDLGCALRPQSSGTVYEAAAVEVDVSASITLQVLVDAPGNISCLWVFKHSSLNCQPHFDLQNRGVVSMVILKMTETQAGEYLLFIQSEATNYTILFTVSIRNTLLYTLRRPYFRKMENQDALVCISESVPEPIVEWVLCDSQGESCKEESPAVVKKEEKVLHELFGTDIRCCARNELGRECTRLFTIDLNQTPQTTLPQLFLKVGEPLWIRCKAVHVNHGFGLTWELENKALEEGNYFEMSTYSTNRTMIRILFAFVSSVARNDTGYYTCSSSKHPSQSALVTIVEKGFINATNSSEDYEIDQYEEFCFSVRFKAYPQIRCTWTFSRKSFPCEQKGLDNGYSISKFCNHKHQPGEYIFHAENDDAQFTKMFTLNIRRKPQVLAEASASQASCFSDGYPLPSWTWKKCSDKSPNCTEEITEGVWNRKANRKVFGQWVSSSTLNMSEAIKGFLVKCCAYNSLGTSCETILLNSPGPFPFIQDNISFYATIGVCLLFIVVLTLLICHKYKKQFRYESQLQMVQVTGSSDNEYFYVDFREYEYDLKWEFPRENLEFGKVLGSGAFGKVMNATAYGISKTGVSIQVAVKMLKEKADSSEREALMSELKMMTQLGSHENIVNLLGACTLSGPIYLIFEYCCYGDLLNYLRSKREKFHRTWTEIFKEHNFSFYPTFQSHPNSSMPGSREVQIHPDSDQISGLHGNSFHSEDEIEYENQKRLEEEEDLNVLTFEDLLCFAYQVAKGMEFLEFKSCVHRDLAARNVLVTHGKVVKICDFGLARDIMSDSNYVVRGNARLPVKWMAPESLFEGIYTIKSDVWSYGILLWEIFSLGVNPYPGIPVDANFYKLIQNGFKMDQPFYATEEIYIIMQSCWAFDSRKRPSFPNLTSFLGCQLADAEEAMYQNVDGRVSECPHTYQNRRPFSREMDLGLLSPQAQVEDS
In short: (§2)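 Radiometric filter-binding assay: kinase, its substrate and compound in 8 mM MOPS pH 7.0, 0.2 mM EDTA, 10 mM MnCl2, with 10 mM magnesium acetate and γ33P-ATP; MgATP started the reaction, 40 min at room temperature. Stopped with 3% phosphate, spotted on Filtermat A, washed, scintillation counted.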

JAK2 = biological target: T3, JAK2 (Homo sapiens, UniProt O60674); test: In vitro kinase activity experiment, JAK2; assay type: biochemical; conditions: inhibition rate of enzyme at 500 nM; measured by Eurofins
T3 construct: purchased Eurofins
In short: as §2

T3 sequence (O60674 whole entry): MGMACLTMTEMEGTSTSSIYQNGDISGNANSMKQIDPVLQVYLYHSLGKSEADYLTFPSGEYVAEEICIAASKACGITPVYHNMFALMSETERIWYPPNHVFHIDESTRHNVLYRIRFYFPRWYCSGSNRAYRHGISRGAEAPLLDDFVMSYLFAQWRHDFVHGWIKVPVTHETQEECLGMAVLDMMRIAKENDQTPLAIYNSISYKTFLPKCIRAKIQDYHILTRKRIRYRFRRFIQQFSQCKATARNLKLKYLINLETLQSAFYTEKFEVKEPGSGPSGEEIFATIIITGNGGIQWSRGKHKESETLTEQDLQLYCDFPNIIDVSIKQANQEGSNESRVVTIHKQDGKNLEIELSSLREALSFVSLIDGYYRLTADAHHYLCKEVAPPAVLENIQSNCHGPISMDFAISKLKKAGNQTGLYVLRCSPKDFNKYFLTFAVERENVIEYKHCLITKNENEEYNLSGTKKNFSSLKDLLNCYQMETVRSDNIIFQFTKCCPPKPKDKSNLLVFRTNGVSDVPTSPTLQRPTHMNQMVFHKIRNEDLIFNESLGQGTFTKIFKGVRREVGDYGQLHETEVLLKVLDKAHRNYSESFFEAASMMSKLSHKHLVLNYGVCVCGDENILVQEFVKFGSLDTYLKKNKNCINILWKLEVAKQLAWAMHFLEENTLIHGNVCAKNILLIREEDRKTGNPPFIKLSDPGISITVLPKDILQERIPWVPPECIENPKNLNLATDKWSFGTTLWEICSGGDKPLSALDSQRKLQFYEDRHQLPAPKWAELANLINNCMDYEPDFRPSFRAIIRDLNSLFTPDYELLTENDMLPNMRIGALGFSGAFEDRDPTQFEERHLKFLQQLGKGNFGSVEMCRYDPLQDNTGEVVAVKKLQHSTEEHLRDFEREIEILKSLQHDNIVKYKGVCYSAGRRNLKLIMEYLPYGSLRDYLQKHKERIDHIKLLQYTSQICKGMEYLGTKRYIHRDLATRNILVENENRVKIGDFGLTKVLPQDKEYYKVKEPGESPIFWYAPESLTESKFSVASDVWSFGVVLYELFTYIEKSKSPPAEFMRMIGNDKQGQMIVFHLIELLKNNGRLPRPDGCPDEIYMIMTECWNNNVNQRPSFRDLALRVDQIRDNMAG

## Cc1cnc(Nc2ccc(N3CCC(N(C)CCO)CC3)c(F)c2)nc1-c1cnn(C(C)C)c1 [CLJ-44, 5-methyl-N-(3-fluoro-4-(4-N-hydroxyethyl-4-N-methylaminopiperidine-1-yl)phenyl)-4-(1-isopropyl-1H-pyrazole-4-yl) pyrimidine-2-amine]
SET-2 cells; 30 mg/kg
  Tumor inhibition rate (%): 66%
SET-2 cells; 60 mg/kg
  Tumor inhibition rate (%): 85%
SET-2 cells; mouse, in vivo
  tolerability, effect on body weight: well tolerated and has no adverse effect on body weight
MV4-11 cells; 30 mg/kg
  Tumor inhibition rate (%): 58%
MV4-11 cells; 60 mg/kg
  Tumor inhibition rate (%): 93%
MV4-11 cells; mouse, in vivo
  tolerability, effect on body weight: well tolerated and has no adverse effect on body weight
JAK3
  IC50: 46 nM
FLT3
  IC50: 4 nM
FLT3; 40 min, read-out: Kinase activity @ 500 nM (%) FLT3
  inhibition at 0.5 µM: 99%
JAK2
  Kinase activity @ 500 nM (%) JAK2: 100%
